Experimental data from patent US11040959B2, “Diprovocims: a new and potent class of TLR agonists” (The Scripps Research Institute, priority 2016, dated 2021).
Where two headings read alike, the source gives them in different places.

How the values were obtained:
[1] = system: differentiated human THP-1 cells; assay: stimulated release of TNF-α from differentiated human THP-1 cells (ELISA, dose-response); type: cell-based; conditions: Homo sapiens
Experimental: A screening campaign was conducted with nearly 100,000 compounds [(a) Whitby et al., Acc. Chem. Res. 2012, 45:1698-1709; and (b) Boger et al., Angew. Chem. Int. Ed. 2003, 42:4138-4176], using a newly developed functional assay that measured the stimulated release of TNF-α from treated human THP-1 cells partially differentiated along the macrophage line [unpublished results of the inventors and co-workers]. […] The libraries screened in the efforts represent a unique compound collection populated by nontraditional compounds [(a) Whitby et al., Acc. Chem. Res. 2012, 45:1698-1709; and (b) Boger et al., Angew. Chem. Int. Ed. 2003, 42:4138-4176] designed to target protein-protein [(a) Shaginian et al., J. Am. Chem. Soc. 2009, 131:5564-5572; and (b) Whitby et al., J. Am. Chem. Soc. 2011, 133:10184-10194] or protein-DNA interactions [Stover et al., J. Am. Chem. Soc. 2009, 131:3342-3348] as well as the major enzyme classes [Otrubova et al., Bioorg. Med. Chem. Lett. 2014, 24:3807-3813].
Hits were confirmed in an ELISA assay for stimulated TNF-α release from human PMA differentiated THP-1 cells and this assay was used for establishing dose-response curves and measured EC50 values.

mouse macrophages = assay: stimulated release of TNF-α from mouse macrophages; type: cell-based; conditions: Macrophage
Source text: EC50 values are derived from dose-response curves for the stimulated release of TNF-α from differentiated THP-1 cells or mouse macrophages are shown beneath each appropriate structural formula of Compounds 8-12. Half maximal effective concentration (EC50) refers to the concentration of a drug, antibody or toxicant that induces a response halfway between the baseline and maximum after a specified exposure time. It is commonly used as a measure of a drug's potency.

[2] = THP-1, Scheme 1, footnote a, read-out: EC50 TNF-α release from human THP-1 cells
[3] = Mus musculus, Scheme 1, footnote b, read-out: EC50 TNF-α release from mouse macrophages
[4] = THP-1, Table 1, TNF-α release from human THP-1 cells, read-out: EC50 (nM) (THP-1)
[5] = Table 1, TNF-α release from mouse macrophages, read-out: EC50 (nM) (mouse)
[6] = THP-1, Table 7, TNF-α release from human THP-1 cells, read-out: EC50 (nM) (THP-1)
[7] = Table 7, TNF-α release from mouse macrophages, read-out: EC50 (nM) (mouse)
[8] = THP-1, Table 3, TNF-α release from human THP-1 cells, read-out: EC50 (nM) (THP-1)
[9] = Table 3, TNF-α release from mouse macrophages, read-out: EC50 (nM) (mouse)

## O=C(N[C@H]1C[C@@H]1c1ccccc1)[C@H]1CN(C(=O)c2ccc(C(=O)N3C[C@H](C(=O)N[C@H]4C[C@@H]4c4ccccc4)[C@@H](C(=O)N[C@H]4C[C@@H]4c4ccccc4)C3)cc2)C[C@@H]1C(=O)N[C@H]1C[C@@H]1c1ccccc1 [Compound 19, (3R,3′R,4R,4′R)-1,1′-Terephthaloylbis(N^3,N^4-bis((1S,2R)-2-phenylcyclopropyl)pyrrolidine-3,4-dicarboxamide)]
[1]; [2]
  EC50: > 5000 nM
Mouse macrophages; [3]
  EC50: > 5000 nM

## O=C(N[C@H]1C[C@@H]1c1ccccc1)[C@@H]1CN(C(=O)[C@H]2CC[C@H](C(=O)N3C[C@@H](C(=O)N[C@H]4C[C@@H]4c4ccccc4)[C@H](C(=O)N[C@H]4C[C@@H]4c4ccccc4)C3)CC2)C[C@H]1C(=O)N[C@H]1C[C@@H]1c1ccccc1 [Compound 42, (3S,3′S,4S,4′S)-1,1′-(trans-1,4-Cyclohexane-dicarbonyl)bis(N^3,N^4-bis((1S,2R)-2-phenyl-cyclopropyl)pyrrolidine-3,4-dicarboxamide)]
[1]; [4]
  EC50: > 5000 nM
Mouse macrophages; [5]
  EC50: > 5000 nM

## O=C(N[C@H]1C[C@@H]1c1ccccc1)[C@H]1CN(C(=O)c2ccc(C(=O)N3C[C@@H](C(=O)N[C@@H]4C[C@H]4c4ccccc4)[C@H](C(=O)N[C@@H]4C[C@H]4c4ccccc4)C3)cc2)C[C@@H]1C(=O)N[C@H]1C[C@@H]1c1ccccc1 [Compound 23, (3R,4R)-1-(4-((3S,4S)-3,4-Bis(((1R,2S)-2-phenyl-cyclopropyl)carbamoyl)-pyrrolidine-1-carbonyl)-benzoyl)—N^3,N^4-bis((1S,2R)-2-phenylcyclopropyl)-pyrrolidine-3,4-dicarboxamide]
[1]; [2]
  EC50: > 5000 nM
Mouse macrophages; [3]
  EC50: > 5000 nM

## O=C(NCCc1ccc(F)cc1)[C@@H]1CN(C(=O)[C@H]2CC[C@H](C(=O)N3C[C@@H](C(=O)NCCc4ccc(F)cc4)[C@H](C(=O)NCCc4ccc(F)cc4)C3)CC2)C[C@H]1C(=O)NCCc1ccc(F)cc1 [Compound 107, (3S,3′S,4S,4′S)-1,1′-((1S,4S)-Cyclohexane-1,4-dicarbonyl)bis(N^3,N^4-bis(4-fluorophenethyl)-pyrrolidine-3,4-dicarboxamide)]
[1]; [6]
  EC50: > 5000 nM
Mouse macrophages; [7]
  EC50: > 5000 nM

## O=C(N[C@H]1C[C@@H]1c1ccccc1)[C@@H]1CN(C(=O)[C@@H]2CCC[C@H](C(=O)N3C[C@@H](C(=O)N[C@H]4C[C@@H]4c4ccccc4)[C@H](C(=O)N[C@H]4C[C@@H]4c4ccccc4)C3)C2)C[C@H]1C(=O)N[C@H]1C[C@@H]1c1ccccc1 [Compound 41, (3S,3′S,4S,4′S)-1,1′-(cis-1,3-Cyclohexane-dicarbonyl)bis(N^3,N^4-bis((1S,2R)-2-phenyl-cyclopropyl)pyrrolidine-3,4-dicarboxamide)]
[1]; [4]
  EC50: > 5000 nM
Mouse macrophages; [5]
  EC50: > 5000 nM

## O=C(N[C@H]1C[C@@H]1c1ccccc1)[C@@H]1CN(C(=O)c2ccc(C(=O)N3C[C@@H](C(=O)N[C@H]4C[C@@H]4c4ccccc4)[C@H](C(=O)N[C@H]4C[C@@H]4c4ccccc4)C3)c([N+](=O)[O-])c2)C[C@H]1C(=O)N[C@H]1C[C@@H]1c1ccccc1 [Compound 54, (3S,3′S,4S,4′S)-1,1′-(2-Nitroterephthaloyl)-bis(N^3,N^4-bis((1S,2R)-2-phenylcyclopropyl)pyrrolidine-3,4-dicarboxamide)]
[1]; [8]
  EC50: 20 nM
Mouse macrophages; [9]
  EC50: > 5000 nM

## O=C(N[C@H]1C[C@@H]1c1ccccc1)[C@@H]1CN(C(=O)c2ccc(C(=O)N3C[C@@H](C(=O)N[C@H]4C[C@@H]4c4ccccc4)[C@H](C(=O)N[C@H]4C[C@@H]4c4ccccc4)C3)nc2)C[C@H]1C(=O)N[C@H]1C[C@@H]1c1ccccc1 [Compound 51, (3S,3′S,4S,4′S)-1,1′-(Pyridine-2,5-dicarbonyl)-bis(N^3,N^4-bis((1S,2R)-2-phenylcyclopropyl)-pyrrolidine-3,4-dicarboxamide)]
[1]; [8]
  EC50: 4 nM
Mouse macrophages; [9]
  EC50: 270 nM

## O=C(N[C@H]1C[C@@H]1c1ccccc1)[C@@H]1CN(C(=O)/C=C/C=C/C(=O)N2C[C@@H](C(=O)N[C@H]3C[C@@H]3c3ccccc3)[C@H](C(=O)N[C@H]3C[C@@H]3c3ccccc3)C2)C[C@H]1C(=O)N[C@H]1C[C@@H]1c1ccccc1 [Compound 52, (3S,3′S,4S,4′S)-1,1′-((2E,4E)-Hexa-2,4-dienedioyl)-bis(N^3,N^4-bis((1S,2R)-2-phenylcyclopropyl)-pyrrolidine-3,4-dicarboxamide)]
[1]; [8]
  EC50: > 5000 nM
Mouse macrophages; [9]
  EC50: > 5000 nM

## O=C(N[C@H]1C[C@@H]1c1ccccc1)[C@@H]1CN(C(=O)c2ccc(-c3ccc(C(=O)N4C[C@@H](C(=O)N[C@H]5C[C@@H]5c5ccccc5)[C@H](C(=O)N[C@H]5C[C@@H]5c5ccccc5)C4)cc3)cc2)C[C@H]1C(=O)N[C@H]1C[C@@H]1c1ccccc1 [Compound 39, (3S,3′S,4S,4′S)-1,1′-(4,4′-Biphenyldicarboxoyl)-bis(N^3,N^4-bis((1S,2R)-2-phenylcyclopropyl)-pyrrolidine-3,4-dicarboxamide)]
[1]; [4]
  EC50: 90 nM
Mouse macrophages; [5]
  EC50: 2300 nM

## O=C(NCCc1ccc(F)cc1)[C@@H]1CN(C(=O)c2cccc(C(=O)N3C[C@@H](C(=O)NCCc4ccc(F)cc4)[C@H](C(=O)NCCc4ccc(F)cc4)C3)c2)C[C@H]1C(=O)NCCc1ccc(F)cc1 [Compound 103, (3S,3′S,4S,4′S)-1,1′-Isophthaloyl-bis-(N^3,N^4-bis(4-fluorophenethyl)pyrrolidine-3,4-dicarboxamide)]
[1]; [6]
  EC50: > 5000 nM
Mouse macrophages; [7]
  EC50: > 5000 nM

## O=C(N[C@@H]1C[C@H]1c1ccccc1)[C@H]1CN(C(=O)c2ccc(C(=O)N3C[C@@H](C(=O)N[C@@H]4C[C@H]4c4ccccc4)[C@H](C(=O)N[C@@H]4C[C@H]4c4ccccc4)C3)cc2)C[C@@H]1C(=O)N[C@@H]1C[C@H]1c1ccccc1 [Compound 24, (3S,4S)-1-(4-((3R,4R)-3,4-Bis(((1R,2S)-2-phenyl-cyclopropyl)carbamoyl)-pyrrolidine-1-carbonyl)-benzoyl)—N^3,N^4-bis((1R,2S)-2-phenylcyclopropyl)-pyrrolidine-3,4-dicarboxamide]
[1]; [2]
  EC50: > 5000 nM
Mouse macrophages; [3]
  EC50: > 5000 nM

## O=C(N[C@H]1C[C@@H]1c1ccccc1)[C@@H]1CN(C(=O)c2c(F)c(F)c(C(=O)N3C[C@@H](C(=O)N[C@H]4C[C@@H]4c4ccccc4)[C@H](C(=O)N[C@H]4C[C@@H]4c4ccccc4)C3)c(F)c2F)C[C@H]1C(=O)N[C@H]1C[C@@H]1c1ccccc1 [Compound 60, (3S,3′S,4S,4′S)-1,1′-(Perfluoroterephthaloyl)-bis(N^3,N^4-bis((1S,2R)-2-phenylcyclopropyl)pyrrolidine-3,4-dicarboxamide)]
[1]; [8]
  EC50: 110 nM
Mouse macrophages; [9]
  EC50: > 5000 nM

## O=C(N[C@H]1C[C@@H]1c1ccccc1)[C@H]1CN(C(=O)c2ccc(C(=O)N3C[C@@H](C(=O)N[C@H]4C[C@@H]4c4ccccc4)[C@H](C(=O)N[C@H]4C[C@@H]4c4ccccc4)C3)cc2)C[C@@H]1C(=O)N[C@H]1C[C@@H]1c1ccccc1 [Compound 22, (3S,4S)-1-(4-((3R,4R)-3,4-Bis(((1S,2R)-2-phenylcyclopropyl)carbamoyl)pyrrolidine-1-carbonyl)-benzoyl)—N^3,N^4-bis((1S,2R)-2-phenylcyclopropyl)-pyrrolidine-3,4-dicarboxamide]
[1]; [2]
  EC50: 3 nM
Mouse macrophages; [3]
  EC50: 150 nM

## O=C(NCCc1ccc(F)cc1)[C@@H]1CN(C(=O)C/C=C/CC(=O)N2C[C@@H](C(=O)NCCc3ccc(F)cc3)[C@H](C(=O)NCCc3ccc(F)cc3)C2)C[C@H]1C(=O)NCCc1ccc(F)cc1 [Compound 102, (3S,3′S,4S,4′S)-1,1′-((E)-Hex-3-enedioyl)bis-(N^3,N^4-bis(4-fluorophenethyl)pyrrolidine-3,4-dicarboxamide)]
[1]; [6]
  EC50: > 5000 nM
Mouse macrophages; [7]
  EC50: > 5000 nM
